Two compounds from patent US20170349592A1, “POLYMORPHIC SUBSTANCE OF YONKENAFIL HYDROCHLORIDE, PREPARATION METHOD THEREFOR, AND COMPOSITION AND USE THEREOF” (Yangtze River Pharmaceutical Group Co., Ltd., priority 2014, published 2017) can be followed below.

This series can be described thus: Standing of the crystalline form at room temperature (polymorph stability). In kind it is physicochemical. The note with it: standing at the condition of room temperature for one week; monohydrochloride.

Turning to `CCCn1cc(C)c2c(=O)[nH]c(-c3cc(S(=O)(=O)N4CCN(CC)CC4)ccc3OCC)nc21.Cl` [B-type polymorphic substance of yonkenafil hydrochloride] [2-[2-ethoxy-5-(4-ethylpiperazine-1-sulfonyl)phenyl]-5-methyl-7-n-propyl-3,7-dihydropyrrolo[2,3-d]pyrimidin-4-one monohydrochloride], the “stability of the crystalline form (polymorphic conversion)” value is recorded as “can be converted into the A-type polymorphic substance of yonkenafil hydrochloride”. In the case of `CCCn1cc(C)c2c(=O)[nH]c(-c3cc(S(=O)(=O)N4CCN(CC)CC4)ccc3OCC)nc21.Cl` [A-type polymorphic substance of yonkenafil hydrochloride] [2-[2-ethoxy-5-(4-ethylpiperazine-1-sulfonyl)phenyl]-5-methyl-7-n-propyl-3,7-dihydropyrrolo[2,3-d]pyrimidin-4-one monohydrochloride] it was “more stable than the B-type polymorphic substance of yonkenafil hydrochloride”.
